Data reported in patent US20210292330A1, “PYRROLIDINE-FUSED HETEROCYCLES” (Erasca, Inc., priority 2020, published 2021).

Biological target: T1, KRAS 4B G12C protein (Homo sapiens, UniProt P01116, G12C)
T1 construct: This protein contained 188 amino acids in total, including an N-terminal 6-Histidine tag; made in house; host or cells: E. coli BL21
Assay: In vitro covalent adduct formation (CAF) assay by LC-MS
Type: binding
Conditions: compound 10 μM, protein 5 μM, 22° C., percentage of protein bound by the compound
Procedure, shortened: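 Percent of protein covalently modified was quantified from intact-mass LC-MS ratios of free versus adducted protein, adducts within 1 Da of expected mass. Reactions: 10 μM compound, 5 μM His-TEV-KRAS 4B G12C (1-169) in TBS pH 7.4, 4% DMSO, 22° C., one hour, run in duplicate.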

CAF (10 minutes/60 minutes) at 10 micromolar: 10 minutes	CAF (10 minutes/60 minutes) at 10 micromolar: 60 minutes	SMILES
53%	65%	C=CC(=O)N1CCN(c2nc(OC[C@@H]3CCCN3CC(C)C)nc3c2CN(C2CCc4ccccc42)C3)C[C@@H]1CC#N (stereo partly shown) [1-192]
3%	22%	C=CC(=O)N1CCN(c2nc(OC[C@@H]3CCCN3C)nc3c2CN(Cc2cc(Cl)ccc2Cl)C3)[C@@H](C)C1 [1-41]
